Measured values: patent US20250243180A1, “TARGETED PROTEIN DEGRADATION” (Monte Rosa Therapeutics AG, priority 2023, published 2025)
Where two headings read alike, the source gives them in different places.

Tests used:
[1] = test system: IL-1β release; test: IL-1β release in human monocyte-derived macrophages, LPS/nigericin stimulation; type: cell-based; details: Macrophage, 24 h pre-treatment, LPS 3 h then 10 μM nigericin 1 h, read-out: IL-1b IC50 (NIG)
Method: (§1) Human monocytes were enriched and isolated from a buffy coat of healthy donor whole blood with a RosetteSep™ Human Monocyte Enrichment Cocktail (Cat.No. 15068, StemCell) and Ficoll-Plaque PLUS (Cat.No. H8889, Sigma). Monocytes were differentiated into macrophages by treatment with 100 ng/mL M-CSF for 6 days at 37° C., 5% CO2. Differentiated macrophages were seeded overnight (50,000 cells/well) in 100 µL of medium in a 96-well, white-bottom plate at 37° C., 5% CO2. Cells were treated with a concentration range of MGD for 24 hours prior to stimulation with nigericin. Macrophages were primed with […] LPS for 3 h followed by 1 h stimulation with 10 μM nigericin. Media of stimulated macrophages were collected and assayed for caspase 1 activity directly (Promega G9951), according to manufacturer's instructions. For IL-1β release assay, media of stimulated macrophages were collected and stored at −20° C., then thawed at 4° C. before assaying for IL-1β activity (Promega W6011), according to manufacturer's instructions.

[2] = target: CRBN-DDB1 (Homo sapiens (Human), UniProt Q96SW2); test: Compound binding to CRBN by HTRF assay
Sequence of CRBN-DDB1 (Q96SW2 whole entry): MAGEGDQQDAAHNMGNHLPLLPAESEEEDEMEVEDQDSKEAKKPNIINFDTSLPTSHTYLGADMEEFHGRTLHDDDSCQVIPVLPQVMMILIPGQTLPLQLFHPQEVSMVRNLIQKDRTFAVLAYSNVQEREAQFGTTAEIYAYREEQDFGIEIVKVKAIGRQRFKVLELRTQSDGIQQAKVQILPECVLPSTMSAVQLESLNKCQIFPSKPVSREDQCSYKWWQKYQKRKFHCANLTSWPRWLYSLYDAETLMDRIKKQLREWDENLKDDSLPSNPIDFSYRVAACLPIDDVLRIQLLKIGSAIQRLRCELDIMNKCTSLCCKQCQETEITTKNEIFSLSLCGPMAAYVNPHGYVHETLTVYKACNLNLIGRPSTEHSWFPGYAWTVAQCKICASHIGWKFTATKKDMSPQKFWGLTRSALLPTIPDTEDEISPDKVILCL
Sequence of CRBN-DDB1 (Q16531 whole entry partner): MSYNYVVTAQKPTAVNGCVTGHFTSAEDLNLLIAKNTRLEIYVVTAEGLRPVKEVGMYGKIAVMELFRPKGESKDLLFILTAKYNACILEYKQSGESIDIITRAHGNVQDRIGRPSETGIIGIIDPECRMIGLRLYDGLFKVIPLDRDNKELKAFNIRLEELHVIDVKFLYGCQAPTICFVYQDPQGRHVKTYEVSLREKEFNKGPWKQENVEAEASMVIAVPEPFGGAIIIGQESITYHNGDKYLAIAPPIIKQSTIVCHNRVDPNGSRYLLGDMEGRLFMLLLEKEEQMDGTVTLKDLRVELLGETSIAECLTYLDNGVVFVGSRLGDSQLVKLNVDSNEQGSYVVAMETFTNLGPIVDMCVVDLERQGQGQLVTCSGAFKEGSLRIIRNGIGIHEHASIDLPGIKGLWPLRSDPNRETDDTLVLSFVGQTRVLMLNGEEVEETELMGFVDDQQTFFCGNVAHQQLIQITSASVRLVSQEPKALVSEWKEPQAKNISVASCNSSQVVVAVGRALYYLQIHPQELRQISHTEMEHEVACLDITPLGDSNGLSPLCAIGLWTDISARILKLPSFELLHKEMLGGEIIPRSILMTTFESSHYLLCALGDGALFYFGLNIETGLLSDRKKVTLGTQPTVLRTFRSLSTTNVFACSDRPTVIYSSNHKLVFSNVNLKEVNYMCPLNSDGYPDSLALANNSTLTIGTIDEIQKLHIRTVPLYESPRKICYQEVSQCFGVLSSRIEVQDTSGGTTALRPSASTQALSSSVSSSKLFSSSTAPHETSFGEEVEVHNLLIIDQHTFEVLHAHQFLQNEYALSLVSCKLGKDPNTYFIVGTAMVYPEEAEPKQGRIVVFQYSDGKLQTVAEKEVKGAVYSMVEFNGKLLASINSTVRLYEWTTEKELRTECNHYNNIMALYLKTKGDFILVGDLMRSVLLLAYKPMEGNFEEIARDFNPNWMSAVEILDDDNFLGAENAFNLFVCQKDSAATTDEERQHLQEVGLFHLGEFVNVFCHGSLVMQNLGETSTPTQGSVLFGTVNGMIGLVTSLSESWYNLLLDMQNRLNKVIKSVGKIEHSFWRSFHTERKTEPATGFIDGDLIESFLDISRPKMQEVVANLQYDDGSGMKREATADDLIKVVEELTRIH
How it was run: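 Ki calculated via Cheng-Prusoff from geometric-mean EC50 values, after normalizing the HTRF ratio to lenalidomide (active) and DMSO (neutral) controls. Compounds (11 points, 1:3 steps) incubated 30 min at ambient temperature with CRBN-DDB1 2.5 nM, anti-His Tb cryptate and Cy5-thalidomide tracer 100 nM.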

[3] = test system: Caspase-1 activity; test: Caspase-1 activity in human monocyte-derived macrophages, LPS/nigericin stimulation; type: cell-based; details: Macrophage, 24 h pre-treatment, LPS 3 h then 10 μM nigericin 1 h, read-out: Caspase-1 IC50 (NIG)
Method: as §1

[4] = Plasma concentration in NHP, multiple-dose study 5 mg/kg oral; type: in vivo, cynomolgus monkeys; details: both sexes, cynomolgus monkey
Method: Non-naïve male and female non-human primate (NHP) cynomolgus monkeys were orally administered with 5 consecutive daily doses of Compound 14 at 5 mg/kg, n=2 per dose group, 1 male and 1 female. Compound formulation was prepared on the day of administration in 0.5% methyl cellulose (4000 cps) in water and animals were fasted overnight. Plasma collected post dose were analyzed using a non GLP LC/MS/MS bioanalytical method to evaluate the compound concentration. Whole blood collected post dose were processed to PBMC and were analyzed using western blot method. Plasma pharmacokinetics and PMBC pharmacodynamics were assessed longitudinally throughout dosing and following dosing cessation.
In Table 7, plasma was isolated 6 h after final dose (dosed once or over five consecutive days), n=2. Plasma collected post dose were analyzed using a non GLP LC/MS/MS bioanalytical method to evaluate the compound concentration.

[5] = target: NEK7 (Homo sapiens (Human), UniProt Q8TDX7+Q96SW2); test: NEK7 NanoBiT degradation assay in Cal51 NEK7 NanoBiT cell line; type: cell-based; details: Cal51 NEK7 NanoBiT cells, 24 hours; for Dmax: CAL-51
Sequence of NEK7 (Q8TDX7 whole entry): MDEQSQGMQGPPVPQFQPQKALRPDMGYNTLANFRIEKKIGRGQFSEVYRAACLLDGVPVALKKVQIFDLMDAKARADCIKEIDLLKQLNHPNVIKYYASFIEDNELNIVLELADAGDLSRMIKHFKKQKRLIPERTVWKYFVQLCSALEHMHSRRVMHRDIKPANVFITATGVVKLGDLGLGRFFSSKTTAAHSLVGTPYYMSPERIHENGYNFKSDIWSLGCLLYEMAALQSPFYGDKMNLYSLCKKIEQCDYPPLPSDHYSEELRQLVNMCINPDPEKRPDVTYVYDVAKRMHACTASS
Sequence of NEK7 (Q96SW2 whole entry): as the sequence (Q96SW2 whole entry) above
Sequence of NEK7 (Q16531 2-1140 partner): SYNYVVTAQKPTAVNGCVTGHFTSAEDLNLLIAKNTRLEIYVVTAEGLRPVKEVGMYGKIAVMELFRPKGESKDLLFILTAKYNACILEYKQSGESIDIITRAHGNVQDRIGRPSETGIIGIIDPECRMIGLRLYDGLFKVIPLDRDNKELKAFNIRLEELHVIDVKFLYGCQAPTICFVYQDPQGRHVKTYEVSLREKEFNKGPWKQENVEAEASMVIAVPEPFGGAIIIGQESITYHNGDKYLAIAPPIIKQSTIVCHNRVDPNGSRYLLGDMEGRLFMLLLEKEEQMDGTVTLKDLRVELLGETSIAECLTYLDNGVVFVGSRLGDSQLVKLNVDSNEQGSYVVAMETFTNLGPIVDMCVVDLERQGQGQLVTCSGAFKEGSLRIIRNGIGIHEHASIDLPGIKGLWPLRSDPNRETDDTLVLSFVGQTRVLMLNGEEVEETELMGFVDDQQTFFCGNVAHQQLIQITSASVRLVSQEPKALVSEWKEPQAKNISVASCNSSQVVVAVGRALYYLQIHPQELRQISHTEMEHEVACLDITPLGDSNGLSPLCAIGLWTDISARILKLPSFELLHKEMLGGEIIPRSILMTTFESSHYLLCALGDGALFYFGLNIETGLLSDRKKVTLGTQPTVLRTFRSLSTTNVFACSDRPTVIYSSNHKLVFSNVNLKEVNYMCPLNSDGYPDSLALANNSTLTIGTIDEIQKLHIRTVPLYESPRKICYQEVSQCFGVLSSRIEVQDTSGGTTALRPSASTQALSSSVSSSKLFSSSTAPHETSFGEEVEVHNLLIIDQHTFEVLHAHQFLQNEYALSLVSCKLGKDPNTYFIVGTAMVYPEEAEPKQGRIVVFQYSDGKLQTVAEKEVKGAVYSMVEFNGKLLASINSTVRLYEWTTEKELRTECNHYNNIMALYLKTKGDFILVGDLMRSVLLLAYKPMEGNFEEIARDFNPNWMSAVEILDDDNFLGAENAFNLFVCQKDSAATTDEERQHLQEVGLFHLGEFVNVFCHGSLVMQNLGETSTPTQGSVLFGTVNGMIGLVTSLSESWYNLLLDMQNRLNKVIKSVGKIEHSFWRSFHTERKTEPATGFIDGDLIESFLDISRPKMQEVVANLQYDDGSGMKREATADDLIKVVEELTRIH
How it was run: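 EC50 comes from a 4-parameter fit of control-normalized luminescence. The luminescence reports HiBiT-NEK7 (endogenous knock-in) complemented by stably expressed LgBiT in Cal51 cells after 24 h compound exposure at 37 °C. Final concentrations ran 1 μM to 0.05 nM, with Endurazine substrate present in the medium throughout.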

[6] = NEK7 degradation, read-out: NanoBiT Dmax
[7] = NEK7 degradation, read-out: NanoBiT DC50

Row | Compound | IC50 [1] | EC50 [2] | EC50 ([2]; HTRF class, Cereblon binding) | IC50 [3] | concentration at 6 h ([4]; Day 1, 6 h post final dose) | concentration at 6 h ([4]; Day 5, 6 h post final dose) | Dmax ([5]; read-out: NEK7 NanoBiT Dmax) | Dmax [5, 6] | DC50 ([5]; read-out: NEK7 NanoBiT DC50) | DC50 [5, 7]
1 | Cc1cnc(C(C)(C)C(=O)NCc2cc(Cl)c(C3CCC(=O)NC3=O)c(Cl)c2)nc1 (stereo not drawn) [Compound 14, N-(3,5-dichloro-4-(2,6-dioxopiperidin-3-yl)benzyl)-2-methyl-2-(5-methylpyrimidin-2-yl)-propanamide] | 1.95 nM | 110 nM | 100 to 1000 nM | 1.85 nM | 5.4 ng/mL | 7.5 ng/mL | 89% | > 75% | 9 nM | ≤ 100 nM
2 | CC(C)(C(=O)NCc1cc(Cl)c(C2CCC(=O)NC2=O)c(Cl)c1)c1ncc(C#N)cn1 (stereo not drawn) [Compound 16, 2-(5-cyanopyrimidin-2-yl)-N-(3,5-dichloro-4-(2,6-dioxopiperidin-3-yl)benzyl)-2-methyl-propanamide] | 0.56 nM | 120 nM | 100 to 1000 nM | 0.32 nM |  |  | 95% | > 75% | 4 nM | ≤ 100 nM
